From patent US20130109682A1, “CYCLIC ETHER COMPOUNDS USEFUL AS KINASE INHIBITORS” (NOVARTIS AG, priority 2010, published 2013)

Tests used:
GSK3β = GSK3β (Homo sapiens, UniProt P49841); assay: GSK3β ATP depletion assay; assay type: biochemical; conditions: read-out: GSK3b IC50
Procedure: GSK3β ATP Depletion Assay
The activity of GSK3β is measured using a luciferase-luciferin based ATP detection reagent to quantify ATP depletion resulting from kinase-catalyzed phosphoryl transfer to a peptide substrate. Compounds to be tested are dissolved in 100% DMSO and directly distributed into white 384-well plates at 0.5 μl per well. To start the reaction, 10 μl of 10 nM GSK3B kinase and 20 μM biotinylated CREB peptide ([…](pS)YR-NH2) in assay buffer (50 mM TRIS pH 7.5, 15 mM MgCl2, 1 mM DTT, 0.1% BSA) is added into each well. After 15 minutes, 10 μl of 2 μM ATP in assay buffer is added. Final assay concentrations are 5 nM GSK3B, […], 10 μM b-CREB peptide and 2.5% DMSO. The reaction is performed until approximately 50% of the ATP is depleted, then stopped with the addition of 20 μl KinaseGlo (Promega Corporation) solution. The stopped reaction is incubated for 10 minutes and the remaining ATP is detected via luminescence on the Victor2 (Perkin Elmer).

PIM2 = PIM2 (Homo sapiens, UniProt Q9P1W9); assay: KinaseGlo Pim2 ATP depletion assay; assay type: biochemical
Procedure: KinaseGlo Pim2 ATP Depletion Assay
The activity of PIM2 is measured using a luciferase-luciferin based ATP detection reagent to quantify ATP depletion resulting from kinase-catalyzed phosphoryl transfer to a peptide substrate. Compounds to be tested are dissolved in 100% DMSO and directly distributed into white 384-well plates at 0.5 piper well. To start the reaction, 10 μl of 10 nM Pim2 kinase and 20 μM BAD peptide (RSRHSSYPAGT-OH) in assay buffer (50 mM HEPES pH 7.5, 5 mM MgCl2, 1 mM DTT, 0.05% BSA) is added into each well. After 15 minutes, 10 μl of 8 μM ATP in assay buffer is added. Final assay concentrations are 5 nM PIM2, 4 μM ATP, 10 μM BAD peptide and 2.5% DMSO. The reaction is performed until approximately 50% of the ATP is depleted, then stopped with the addition of 20 μl KinaseGlo Plus (Promega Corporation) solution. The stopped reaction is incubated for 10 minutes and the remaining ATP detected via luminescence on the Victor2 (Perkin Elmer).

PIM3 = PIM3 (Homo sapiens, UniProt Q86V86); assay: KinaseGlo Pim3 ATP depletion assay; assay type: biochemical
Procedure: KinaseGlo Pim3 ATP Depletion Assay
The activity of PIM3 is measured using a luciferase-luciferin based ATP detection reagent to quantify ATP depletion resulting from kinase-catalyzed phosphoryl transfer to a peptide substrate. Compounds to be tested are dissolved in 100% DMSO and directly distributed into white 384-well plates at 0.5 μl per well. To start the reaction, 10 μl of 10 nM Pim3 kinase and 200 μM BAD peptide (RSRHSSYPAGT-OH) in assay buffer (50 mM HEPES pH 7.5, 5 mM MgCl2, 1 mM DTT, 0.05% BSA) is added into each well. After 15 minutes, 10 μl of 80 μM ATP in assay buffer is added. Final assay concentrations are 5 nM […], 40 μM ATP, 100 μM BAD peptide and 2.5% DMSO. The reaction is performed until approximately 50% of the ATP is depleted, then stopped by the addition of 20 μl KinaseGlo Plus (Promega Corporation) solution. The stopped reaction is incubated for 10 minutes and the remaining ATP detected via luminescence on the Victor2 (Perkin Elmer).

[1] = test system: KMS11 (human myeloma cell line); assay: Cell proliferation assay (CellTiter-Glo), KMS11; assay type: cell-based; conditions: Homo sapiens, KMS-11; KMS11-Luc cells
Procedure: KMS11 (human myeloma cell line), were cultured in IMDM supplemented with 10% FBS, sodium pyruvate and antibiotics. Cells were plated in the same medium at a density of 2000 cells per well into 96 well tissue culture plates, with outside wells vacant, on the day of assay. MMl.s (human myeloma cell line), were cultured in RPMI1640 supplemented with 10% FBS, sodium pyruvate and antibiotics. Cells were plated in the same medium at a density of 5000 cells per well into 96 well tissue culture plates, with outside wells vacant, on the day of assay.
Test compounds supplied in DMSO were diluted into DMSO at 500 times the desired final concentrations before dilution into culture media to 2 times final concentrations. Equal volumes of 2× compounds were added to the cells in 96 well plates and incubated at 37° C. for 3 days.
After 3 days plates were equilibrated to room temperature and equal volume of CellTiter-Glow Reagent (Promega) was added to the culture wells. The plates were agitated briefly and luminescent signal was measured with luminometer.
Using the procedures of Cell Proliferation Assay, the EC50 concentration of indicated compounds of the examples in were determined in KMS11 cells as shown in Table 4.

PIM1 = PIM1 (Homo sapiens, UniProt P11309); assay: KinaseGlo Pim1 ATP depletion assay; assay type: biochemical
Procedure: KinaseGlo Pim1 ATP Depletion Assay
The activity of PIM1 is measured using a luciferase-luciferin based ATP detection reagent to quantify ATP depletion resulting from kinase-catalyzed phosphoryl transfer to a peptide substrate. Compounds to be tested are dissolved in 100% DMSO and directly distributed into white 384-well plates at 0.5 μA per well. To start the reaction, 10 μA of 5 nM Pim1 kinase and 80 μM BAD peptide (RSRHSSYPAGT-OH) in assay buffer (50 mM HEPES pH 7.5, 5 mM MgCl2, 1 mM DTT, 0.05% BSA) is added into each well. After 15 minutes, 10 μl of 40 μM ATP in assay buffer is added. Final assay concentrations are 2.5 nM PIM1, 20 μM ATP, 40 μM BAD peptide and 2.5% DMSO. The reaction is performed until approximately 50% of the ATP is depleted, then stopped with the addition of 20 μA KinaseGlo Plus (Promega Corporation) solution. The stopped reaction is incubated for 10 minutes and the remaining ATP detected via luminescence on the Victor2 (Perkin Elmer). […] IC50, the half maximal inhibitory concentration, represents the concentration of a test compound that is required for 50% inhibition of its target in vitro.

Chain of GSK3β (P49841 whole entry, species assumed): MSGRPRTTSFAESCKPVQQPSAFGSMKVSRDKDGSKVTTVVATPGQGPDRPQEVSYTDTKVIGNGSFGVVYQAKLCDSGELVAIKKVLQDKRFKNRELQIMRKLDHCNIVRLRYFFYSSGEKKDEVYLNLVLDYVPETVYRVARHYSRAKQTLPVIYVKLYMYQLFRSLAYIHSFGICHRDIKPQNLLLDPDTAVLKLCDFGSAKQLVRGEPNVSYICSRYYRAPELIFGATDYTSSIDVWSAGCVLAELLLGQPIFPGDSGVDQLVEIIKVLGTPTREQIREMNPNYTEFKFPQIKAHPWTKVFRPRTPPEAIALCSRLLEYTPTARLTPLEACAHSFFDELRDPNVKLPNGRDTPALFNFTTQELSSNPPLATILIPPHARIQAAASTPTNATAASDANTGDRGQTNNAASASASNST
Chain of PIM2 (Q9P1W9 whole entry): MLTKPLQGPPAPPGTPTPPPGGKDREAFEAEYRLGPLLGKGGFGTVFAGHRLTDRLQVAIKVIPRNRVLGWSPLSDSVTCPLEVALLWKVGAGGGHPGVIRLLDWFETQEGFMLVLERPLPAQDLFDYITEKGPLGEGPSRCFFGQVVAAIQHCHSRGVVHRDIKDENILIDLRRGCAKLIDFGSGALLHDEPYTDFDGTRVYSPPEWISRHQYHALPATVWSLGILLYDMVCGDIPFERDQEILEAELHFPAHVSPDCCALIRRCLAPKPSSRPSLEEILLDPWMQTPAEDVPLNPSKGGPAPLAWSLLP
Chain of PIM1 (P11309 whole entry): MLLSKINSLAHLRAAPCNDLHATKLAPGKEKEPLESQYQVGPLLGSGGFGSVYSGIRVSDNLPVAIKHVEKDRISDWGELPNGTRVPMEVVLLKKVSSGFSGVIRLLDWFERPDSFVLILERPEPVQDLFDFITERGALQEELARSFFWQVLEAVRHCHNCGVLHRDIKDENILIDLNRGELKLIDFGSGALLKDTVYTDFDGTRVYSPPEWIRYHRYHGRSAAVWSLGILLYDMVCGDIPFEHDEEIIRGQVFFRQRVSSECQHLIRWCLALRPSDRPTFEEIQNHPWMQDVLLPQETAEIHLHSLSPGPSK

Structure (SMILES) | IC50 (GSK3β) [nM] | IC50 (PIM2) [nM] | IC50 (PIM3) [nM] | EC50 [1] [nM] | IC50 (PIM1) [nM]
C[C@H]1[C@H](C)O[C@H](c2ccncc2NC(=O)c2csc(-c3c(F)cccc3F)n2)C[C@@H]1O (stereo in doubt) [Example 94, 2-(2,6-difluorophenyl)-N-(4-((2S,4S,5R,6S)-4-hydroxy-5,6-dimethyltetrahydro-2H-pyran-2-yl)pyridin-3-yl)thiazole-4-carboxamide] | 11 | 246 | 9 | 4200 | 1
C[C@H]1[C@H](O)C[C@H](c2ccncc2NC(=O)c2csc(-c3c(F)cccc3F)n2)O[C@@H]1C (stereo in doubt) [Example 95, 2-(2,6-difluorophenyl)-N-(4-((2R,4R,5S,6R)-4-hydroxy-5,6-dimethyltetrahydro-2H-pyran-2-yl)pyridin-3-yl)thiazole-4-carboxamide] | 32 | 2170 | 80 | > 10000 | 8
C[C@H]1[C@H](C)O[C@H](c2ccncc2NC(=O)c2ccc(F)c(-c3c(F)cccc3F)n2)C[C@@H]1O (stereo in doubt) [Example 96, 6-(2,6-difluorophenyl)-5-fluoro-N-(4-((2S,4S,5R,6S)-4-hydroxy-5,6-dimethyltetrahydro-2H-pyran-2-yl)pyridin-3-yl)picolinamide] | 141 | 16 | 3 | 3900 | 1
C[C@H]1[C@H](O)C[C@H](c2ccncc2NC(=O)c2ccc(F)c(-c3c(F)cccc3F)n2)O[C@@H]1C (stereo in doubt) [Example 97, 6-(2,6-difluorophenyl)-5-fluoro-N-(4-((2R,4R,5S,6R)-4-hydroxy-5,6-dimethyltetrahydro-2H-pyran-2-yl)pyridin-3-yl)picolinamide] | 313 | 263 | 37 | > 10000 | 5
C[C@H]1O[C@@H](c2ccncc2NC(=O)c2csc(-c3c(F)cccc3F)n2)C[C@@H](O)[C@]1(C)O (stereo in doubt) [Example 109, 2-(2,6-difluorophenyl)-N-(4-((2R,4R,5S,6R)-4,5-dihydroxy-5,6-dimethyltetrahydro-2H-pyran-2-yl)pyridin-3-yl)thiazole-4-carboxamide] | 272 | 3420 | 88 | > 10000 | 68
C[C@H]1O[C@@H](c2ccncc2NC(=O)c2ccc(F)c(-c3c(F)cccc3F)n2)C[C@@H](O)[C@]1(C)O (stereo in doubt) [Example 110, 6-(2,6-difluorophenyl)-N-(4-((2R,4R,5S,6R)-4,5-dihydroxy-5,6-dimethyltetrahydro-2H-pyran-2-yl)pyridin-3-yl)-5-fluoropicolinamide] | 659 | 347 | 16 | > 10000 | 19
C[C@@H]1O[C@H](c2ccncc2NC(=O)c2csc(-c3c(F)cccc3F)n2)C[C@H](O)[C@@]1(C)O (stereo in doubt) [Example 111, 2-(2,6-difluorophenyl)-N-(4-((2S,4S,5R,6S)-4,5-dihydroxy-5,6-dimethyltetrahydro-2H-pyran-2-yl)pyridin-3-yl)thiazole-4-carboxamide] | 26 | 43 | 2 | > 10000 | 1
N#Cc1ccc(F)c(-c2nc(C(=O)Nc3cnccc3[C@H]3C[C@@H](O)[C@H](O)[C@@H](CCl)O3)ccc2F)c1F [Example 1, N-(4-((2R,4R,5S,6S)-6-(chloromethyl)-4,5-dihydroxytetrahydro-2H-pyran-2-yl)pyridin-3-yl)-6-(3-cyano-2,6-difluorophenyl)-5-fluoropicolinamide] | 33 | 5 | 3.2 | 9350 | 17
CC[C@H]1O[C@@H](c2ccncc2NC(=O)c2ccc(F)c(-c3c(F)ccc(C#N)c3F)n2)C[C@@H](O)[C@@H]1O [Example 2, 6-(3-cyano-2,6-difluorophenyl)-N-(4-((2R,4R,5S,6R)-6-ethyl-4,5-dihydroxytetrahydro-2H-pyran-2-yl)pyridin-3-yl)-5-fluoropicolinamide] | 51 | 13 | 8.3 | > 10000 | 42

Further lines, results first:

IC50 (GSK3β) [nM] | IC50 (PIM2) [nM] | IC50 (PIM3) [nM] | EC50 [1] [nM] | IC50 (PIM1) [nM] | Structure (SMILES)
104 | 2320 | 165 | > 10000 | 10 | C[C@@H]1C[C@H](O)C[C@H](c2ccncc2NC(=O)c2csc(-c3c(F)cccc3F)n2)O1 (stereo in doubt) [Example 125, 2-(2,6-difluorophenyl)-N-(4-((2R,4S,6R)-4-hydroxy-6-methyltetrahydro-2H-pyran-2-yl)pyridin-3-yl)thiazole-4-carboxamide]
548 | 213 | 52 | > 10000 | 4 | C[C@@H]1C[C@H](O)C[C@H](c2ccncc2NC(=O)c2ccc(F)c(-c3c(F)cccc3F)n2)O1 (stereo in doubt) [Example 126, 6-(2,6-difluorophenyl)-5-fluoro-N-(4-((2R,4S,6R)-4-hydroxy-6-methyltetrahydro-2H-pyran-2-yl)pyridin-3-yl)picolinamide]
76 | 149 | 7 | > 10000 | 1 | C[C@@H]1O[C@H](c2ccncc2NC(=O)c2csc(-c3c(F)cccc3F)n2)C[C@H](O)[C@H]1O (stereo in doubt) [Example 135, 2-(2,6-difluorophenyl)-N-(4-((2S,4S,5R,6S)-4,5-dihydroxy-6-methyltetrahydro-2H-pyran-2-yl)pyridin-3-yl)thiazole-4-carboxamide]
165 | 363 | 13 | > 10000 | 18 | C[C@H]1O[C@@H](c2ccncc2NC(=O)c2csc(-c3c(F)cccc3F)n2)C[C@@H](O)[C@@H]1O (stereo in doubt) [Example 136, 2-(2,6-difluorophenyl)-N-(4-((2R,4R,5S,6R)-4,5-dihydroxy-6-methyltetrahydro-2H-pyran-2-yl)pyridin-3-yl)thiazole-4-carboxamide]
